In ChEMBL document CHEMBL1201862, “PubChem BioAssay data set” (2004):
Active and inactive are the calls of the source.

How the values were obtained:
[1] = test system: HEK293; assay: cells; assay type: functional, cell-based; details: Homo sapiens
[2] = molecular target: Nucleotide-binding oligomerization domain-containing protein 2 (Homo sapiens, UniProt Q9HC29); assay: inhibition of NOD2-driven NF-kB reporter – cell-based, luminescence, uHTS, HEK293 (AID 1566); assay type: functional
[3] = test system: HEK293; assay: cells; assay type: functional, cell-based; details: Homo sapiens; remark: listed apart in the source
[4] = test system: HEK293; assay: cells; assay type: functional, cell-based; details: Homo sapiens; remark: listed apart in the source
[5] = test system: HEK293; assay: inhibition of NOD1-driven NF-kB reporter – cell-based, luminescence, uHTS, primary screen (AID 1578); assay type: functional; details: Homo sapiens
[6] = test system: HEK293; assay: NOD2 signaling inhibitors in MDP-stimulated cells, cell-based, uHTS, luminescence (AID 2001); assay type: functional; details: Homo sapiens
[7] = molecular target: T1, Heat shock factor protein 1 (Mus musculus, UniProt P38532); assay: enhancement of HSF1-driven luciferase signal – cell-based, NIH3T3, luminescence, dose retest, confirmation (AID 435004); assay type: functional;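 also: stress induced by proteasome inhibitor MG132 added 30 min after compound; luciferase reporter driven by HSF1 response element in NIH3T3 cells; actives raise luminescence as potentiators of the MG132 stress response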
T1 sequence (P38532 whole entry): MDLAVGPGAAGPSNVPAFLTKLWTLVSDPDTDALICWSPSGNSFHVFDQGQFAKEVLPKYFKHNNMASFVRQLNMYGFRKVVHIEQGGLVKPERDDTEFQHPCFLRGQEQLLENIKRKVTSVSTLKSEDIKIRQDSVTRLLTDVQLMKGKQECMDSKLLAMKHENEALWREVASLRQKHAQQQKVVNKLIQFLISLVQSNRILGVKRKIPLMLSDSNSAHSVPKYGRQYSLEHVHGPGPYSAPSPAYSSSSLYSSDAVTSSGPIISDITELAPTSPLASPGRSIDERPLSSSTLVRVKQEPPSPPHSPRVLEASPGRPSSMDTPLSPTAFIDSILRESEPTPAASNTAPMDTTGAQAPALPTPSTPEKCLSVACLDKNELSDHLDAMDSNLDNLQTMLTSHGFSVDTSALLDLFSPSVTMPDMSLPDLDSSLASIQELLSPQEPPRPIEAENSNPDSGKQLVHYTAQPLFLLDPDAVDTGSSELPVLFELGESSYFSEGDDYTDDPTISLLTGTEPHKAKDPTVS

[8] = molecular target: DNA damage-inducible transcript 3 protein (Mus musculus, UniProt P35639); assay type: functional, Cricetulus griseus
[9] = molecular target: T2, Voltage-gated N-type calcium channel alpha-1B subunit/Amyloid beta A4 precursor protein-binding family A member 1 (Homo sapiens, UniProt Q00975+Q02410); assay type: protein assay
[10] = molecular target: T2, Voltage-gated N-type calcium channel alpha-1B subunit/Amyloid beta A4 precursor protein-binding family A member 1; assay type: protein assay; remark: listed apart in the source
[11] = molecular target: T3, Type-1 angiotensin II receptor (Homo sapiens, UniProt P30556); assay: agonist activity at AGTR1 – cell-based, uHTS hits, selectivity assay for APJ receptor agonist project, dose response (AID 488865); assay type: functional;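 also: beta-arrestin recruitment to AT1 measured by enzyme fragment complementation luminescence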
T3 sequence (P30556 whole entry): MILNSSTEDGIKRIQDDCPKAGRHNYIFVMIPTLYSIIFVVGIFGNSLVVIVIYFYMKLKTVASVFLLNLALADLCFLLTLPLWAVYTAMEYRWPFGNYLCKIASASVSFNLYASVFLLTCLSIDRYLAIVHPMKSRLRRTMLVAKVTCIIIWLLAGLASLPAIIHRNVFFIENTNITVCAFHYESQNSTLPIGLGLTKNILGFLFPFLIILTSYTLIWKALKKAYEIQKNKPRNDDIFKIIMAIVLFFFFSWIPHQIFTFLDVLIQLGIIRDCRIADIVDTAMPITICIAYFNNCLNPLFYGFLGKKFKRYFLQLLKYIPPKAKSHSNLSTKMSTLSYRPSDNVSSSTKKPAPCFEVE

[12] = molecular target: Glyceraldehyde-3-phosphate dehydrogenase (Homo sapiens, UniProt P04406)
[13] = molecular target: Alkaline phosphatase, placental type (Homo sapiens, UniProt P05187); assay: human placental alkaline phosphatase inhibition – biochemical, luminescence, confirmation (AID 1512); assay type: functional
[14] = molecular target: T4, Alkaline phosphatase, tissue-nonspecific isozyme (Homo sapiens, UniProt P05186); assay: potency against alkaline phosphatase TNAP – biochemical, luminescent, dose response, SAR follow-up (AID 1056)
T4 sequence (P05186 whole entry): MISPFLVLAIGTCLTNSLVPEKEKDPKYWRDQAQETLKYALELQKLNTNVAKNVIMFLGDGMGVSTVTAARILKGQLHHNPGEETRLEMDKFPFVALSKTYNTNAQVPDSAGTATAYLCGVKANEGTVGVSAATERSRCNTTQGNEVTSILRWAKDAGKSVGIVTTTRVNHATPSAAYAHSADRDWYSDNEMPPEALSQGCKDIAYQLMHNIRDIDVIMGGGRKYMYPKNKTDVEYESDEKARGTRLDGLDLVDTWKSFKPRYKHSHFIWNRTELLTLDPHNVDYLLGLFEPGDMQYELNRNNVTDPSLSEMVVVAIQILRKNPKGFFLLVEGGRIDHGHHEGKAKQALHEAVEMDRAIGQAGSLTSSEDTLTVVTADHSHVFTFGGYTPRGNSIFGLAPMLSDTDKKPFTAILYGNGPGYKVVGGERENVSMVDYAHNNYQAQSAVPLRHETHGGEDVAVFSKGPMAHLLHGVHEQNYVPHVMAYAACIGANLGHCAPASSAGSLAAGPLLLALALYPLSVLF

[15] = molecular target: Glucose-6-phosphate 1-dehydrogenase (Homo sapiens, UniProt P11413); assay: inhibition of Homo sapiens G6PD, dose series – biochemical, fluorescence, selectivity assay for P. falciparum G6PD inhibitor project, dose response (AID 504792); assay type: functional
[16] = molecular target: DNA dC->dU-editing enzyme APOBEC-3A (Homo sapiens, UniProt P31941); assay: A3A deaminase inhibition for selectivity – biochemical, dose response (AID 504722); assay type: functional
[17] = molecular target: DNA dC->dU-editing enzyme APOBEC-3G (Homo sapiens, UniProt Q9HC16); assay: Dose Response confirmation of small molecule APOBEC3G DNA Deaminase Inhibitors via a fluorescence-based single-stranded DNA deaminase assay. [Related pubchem assays (depositor defined):AID493012, AID493028]; assay type: functional
[18] = Luminescence Cell-Based Dose Retest to Confirm Inhibitors of Cancer Stem Cells. [Related pubchem assays (depositor defined):AID2717, AID2721]; assay type: functional; details: Homo sapiens
[19] = molecular target: T5, Coagulation factor XII (Homo sapiens, UniProt P00748); assay type: functional;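 also: activated factor XIIa alpha cleaving a fluorogenic AMC peptide substrate; inhibitor potency from loss of enzyme activity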
T5 sequence (P00748 whole entry): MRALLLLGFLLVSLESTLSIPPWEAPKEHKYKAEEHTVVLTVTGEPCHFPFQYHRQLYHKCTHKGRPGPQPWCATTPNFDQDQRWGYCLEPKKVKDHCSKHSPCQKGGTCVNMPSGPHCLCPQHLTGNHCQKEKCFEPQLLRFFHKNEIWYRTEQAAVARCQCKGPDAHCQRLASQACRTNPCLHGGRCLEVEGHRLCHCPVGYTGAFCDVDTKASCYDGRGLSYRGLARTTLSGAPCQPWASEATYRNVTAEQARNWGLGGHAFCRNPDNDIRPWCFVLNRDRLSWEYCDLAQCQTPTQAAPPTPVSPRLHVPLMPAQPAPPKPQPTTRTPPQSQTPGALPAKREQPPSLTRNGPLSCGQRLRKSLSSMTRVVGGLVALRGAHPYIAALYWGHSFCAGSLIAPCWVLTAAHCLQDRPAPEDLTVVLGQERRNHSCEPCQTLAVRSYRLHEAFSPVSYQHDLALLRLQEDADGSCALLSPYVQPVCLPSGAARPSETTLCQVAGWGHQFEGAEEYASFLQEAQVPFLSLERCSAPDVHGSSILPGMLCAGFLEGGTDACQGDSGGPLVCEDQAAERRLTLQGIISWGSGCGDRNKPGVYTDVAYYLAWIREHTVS

[20] = HepG2 cell cytotoxicity, dose response, cytotoxicity control for non-replicating M. tuberculosis project (AID 489018); assay type: functional; details: Mycobacterium tuberculosis
[21] = cells; assay type: functional
[22] = THP-1 cell cytotoxicity, dose response, cytotoxicity control for non-replicating M. tuberculosis project (AID 489025); assay type: functional
[23] = molecular target: T6, Intestinal-type alkaline phosphatase (Homo sapiens, UniProt P09923); assay: human intestinal alkaline phosphatase activators, dose response, biochemical, luminescence, uHTS hits (AID 463120); assay type: functional
[24] = molecular target: T6, Intestinal-type alkaline phosphatase; assay: Dose Response confirmation of uHTS hits from a small molecule inhibitors of human intestinal alkaline phosphatase via a luminescent assay. [Related pubchem assays (depositor defined):AID2544, AID2574]; assay type: functional
[25] = viability of uninfected HEp-2 cells – cell-based, HTS, cytotoxicity control for RSV inhibitor project, dose response (AID 2410); assay type: functional; details: human respiratory syncytial virus
[26] = test system: BJ; assay: BJ-TERT-LT-ST fibroblast viability loss – cell-based, RAS-independent, luminescence, dose response (AID 1935); assay type: functional; details: Homo sapiens;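 also: BJ fibroblasts immortalized with TERT plus LT and ST oncogenes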
[27] = Trypanosoma cruzi growth suppression in host cells – NIH3T3 host cells, beta-gal luminescence, confirmation (AID 2044); assay type: functional, cell-based;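 also: intracellular parasites grown in NIH/3T3 mouse fibroblasts as host cells; luminescent beta-galactosidase reporter signal from transgenic T. cruzi replicating inside host cells; inhibitors lower the luminescence signal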
[28] = test system: BJ; assay: cells; assay type: functional, cell-based; details: Homo sapiens
[29] = NIH3T3 cell viability loss – ATP luminescence, mouse fibroblasts, counter-screen, dose response (AID 2010); assay type: functional, cell-based;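 also: cells exposed to compound for about 90 hours before reading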
[30] = molecular target: Melanocortin receptor 4 (Homo sapiens, UniProt P32245); assay type: functional, cell-based;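 also: Cell-based assay with luminescence read-out, confirmatory dose-response testing for agonist activity of biased ligands at MC4R; human U2OS cells with tagged receptor and beta-arrestin; potency of agonists that increase receptor coupling to beta-arrestin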
[31] = DRD fibroblast viability loss – cell-based, non-viral oncogenic, luminescence, dose response (AID 1934); assay type: functional; details: Homo sapiens
[32] = test system: BJ; assay: BJ-TERT fibroblast viability loss – cell-based, RAS-independent, luminescence, dose response (AID 1933); assay type: functional; details: Homo sapiens
[33] = cells
[34] = molecular target: T7, Ubiquitin-conjugating enzyme E2 N (Homo sapiens, UniProt P61088); assay type: functional;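 also: Dose-response confirmation in a TR-FRET assay detecting UBC13-driven polyubiquitin chain formation, inhibition measured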
T7 sequence (P61088 whole entry): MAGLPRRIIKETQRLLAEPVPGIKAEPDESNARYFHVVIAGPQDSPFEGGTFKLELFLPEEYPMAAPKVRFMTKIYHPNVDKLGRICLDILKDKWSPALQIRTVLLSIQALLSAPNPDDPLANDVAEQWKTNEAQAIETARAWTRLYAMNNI

[35] = microbe, parasite or virus in culture; assay type: functional; details: Mycobacterium tuberculosis
[36] = test system: HEK293; assay: EBV LMP1 TES2 canonical NF-kB signalling blockers – cell-based, HEK293, luciferase, cherry-pick, dose response (AID 588343); assay type: functional; details: Homo sapiens
[37] = Vero E6 cell cytotoxicity, dose response, cytotoxicity control for non-replicating M. tuberculosis project, secondary assay (AID 492998); assay type: functional, VeroE6; details: Vero C1008

T2 sequence (Q00975 whole entry): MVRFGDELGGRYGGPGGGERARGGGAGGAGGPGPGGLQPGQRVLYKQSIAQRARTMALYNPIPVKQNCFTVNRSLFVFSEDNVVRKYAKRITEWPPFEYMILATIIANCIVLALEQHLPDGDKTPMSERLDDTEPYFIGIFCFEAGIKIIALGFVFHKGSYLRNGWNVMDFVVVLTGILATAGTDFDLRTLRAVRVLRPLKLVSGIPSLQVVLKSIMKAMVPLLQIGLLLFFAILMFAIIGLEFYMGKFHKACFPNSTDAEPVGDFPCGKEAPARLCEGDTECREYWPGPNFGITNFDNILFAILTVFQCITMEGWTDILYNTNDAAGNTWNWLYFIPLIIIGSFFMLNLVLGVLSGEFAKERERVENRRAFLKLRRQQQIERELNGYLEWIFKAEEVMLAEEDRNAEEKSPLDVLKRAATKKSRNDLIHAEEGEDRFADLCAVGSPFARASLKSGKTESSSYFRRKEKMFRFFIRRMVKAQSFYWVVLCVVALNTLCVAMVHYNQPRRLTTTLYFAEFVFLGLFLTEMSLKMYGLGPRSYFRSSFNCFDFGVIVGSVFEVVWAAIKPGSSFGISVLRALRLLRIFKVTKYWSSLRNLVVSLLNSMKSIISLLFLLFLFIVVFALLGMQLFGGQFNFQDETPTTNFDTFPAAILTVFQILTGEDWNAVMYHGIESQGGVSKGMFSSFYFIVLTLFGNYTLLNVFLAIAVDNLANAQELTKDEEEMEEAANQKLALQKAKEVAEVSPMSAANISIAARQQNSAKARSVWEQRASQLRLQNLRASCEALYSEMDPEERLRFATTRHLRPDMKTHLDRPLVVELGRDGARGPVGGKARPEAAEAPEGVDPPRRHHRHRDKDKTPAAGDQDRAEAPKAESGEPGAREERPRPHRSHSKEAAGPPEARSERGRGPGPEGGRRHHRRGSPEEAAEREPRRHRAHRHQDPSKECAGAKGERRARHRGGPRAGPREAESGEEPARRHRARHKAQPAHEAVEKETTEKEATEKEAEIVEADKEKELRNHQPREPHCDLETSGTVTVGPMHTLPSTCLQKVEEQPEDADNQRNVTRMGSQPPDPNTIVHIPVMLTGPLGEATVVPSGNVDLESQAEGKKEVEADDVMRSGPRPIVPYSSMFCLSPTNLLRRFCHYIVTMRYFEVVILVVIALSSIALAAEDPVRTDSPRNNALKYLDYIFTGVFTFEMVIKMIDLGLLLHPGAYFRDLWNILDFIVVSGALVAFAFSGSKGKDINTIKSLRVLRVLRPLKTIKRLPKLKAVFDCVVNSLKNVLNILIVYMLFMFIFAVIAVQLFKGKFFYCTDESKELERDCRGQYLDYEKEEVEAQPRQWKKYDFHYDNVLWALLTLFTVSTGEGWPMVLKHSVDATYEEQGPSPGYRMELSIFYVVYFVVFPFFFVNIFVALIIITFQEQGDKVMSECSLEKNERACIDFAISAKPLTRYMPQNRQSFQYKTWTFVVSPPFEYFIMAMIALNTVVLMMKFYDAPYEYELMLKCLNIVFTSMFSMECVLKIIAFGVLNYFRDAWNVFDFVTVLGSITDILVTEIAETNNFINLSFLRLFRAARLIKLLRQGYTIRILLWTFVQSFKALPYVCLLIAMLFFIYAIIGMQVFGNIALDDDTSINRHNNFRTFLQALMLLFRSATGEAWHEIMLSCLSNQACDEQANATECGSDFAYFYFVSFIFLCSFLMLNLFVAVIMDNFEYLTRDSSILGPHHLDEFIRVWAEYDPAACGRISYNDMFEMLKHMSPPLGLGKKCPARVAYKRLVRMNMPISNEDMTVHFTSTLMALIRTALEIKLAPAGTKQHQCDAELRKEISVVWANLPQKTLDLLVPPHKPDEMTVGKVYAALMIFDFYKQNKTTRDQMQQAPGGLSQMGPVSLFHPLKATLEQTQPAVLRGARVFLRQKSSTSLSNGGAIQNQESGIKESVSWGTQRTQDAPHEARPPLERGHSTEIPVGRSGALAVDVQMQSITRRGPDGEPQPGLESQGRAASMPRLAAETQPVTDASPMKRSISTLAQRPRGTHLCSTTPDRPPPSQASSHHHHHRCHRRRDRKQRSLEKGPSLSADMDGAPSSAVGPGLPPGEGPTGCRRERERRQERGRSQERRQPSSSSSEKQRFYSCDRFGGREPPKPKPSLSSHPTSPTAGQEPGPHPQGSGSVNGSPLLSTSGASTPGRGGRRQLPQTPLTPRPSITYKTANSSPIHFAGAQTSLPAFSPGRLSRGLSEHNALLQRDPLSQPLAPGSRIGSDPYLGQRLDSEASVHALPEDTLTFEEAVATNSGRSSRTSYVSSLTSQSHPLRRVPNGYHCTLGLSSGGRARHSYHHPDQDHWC
T2 sequence (Q02410 whole entry): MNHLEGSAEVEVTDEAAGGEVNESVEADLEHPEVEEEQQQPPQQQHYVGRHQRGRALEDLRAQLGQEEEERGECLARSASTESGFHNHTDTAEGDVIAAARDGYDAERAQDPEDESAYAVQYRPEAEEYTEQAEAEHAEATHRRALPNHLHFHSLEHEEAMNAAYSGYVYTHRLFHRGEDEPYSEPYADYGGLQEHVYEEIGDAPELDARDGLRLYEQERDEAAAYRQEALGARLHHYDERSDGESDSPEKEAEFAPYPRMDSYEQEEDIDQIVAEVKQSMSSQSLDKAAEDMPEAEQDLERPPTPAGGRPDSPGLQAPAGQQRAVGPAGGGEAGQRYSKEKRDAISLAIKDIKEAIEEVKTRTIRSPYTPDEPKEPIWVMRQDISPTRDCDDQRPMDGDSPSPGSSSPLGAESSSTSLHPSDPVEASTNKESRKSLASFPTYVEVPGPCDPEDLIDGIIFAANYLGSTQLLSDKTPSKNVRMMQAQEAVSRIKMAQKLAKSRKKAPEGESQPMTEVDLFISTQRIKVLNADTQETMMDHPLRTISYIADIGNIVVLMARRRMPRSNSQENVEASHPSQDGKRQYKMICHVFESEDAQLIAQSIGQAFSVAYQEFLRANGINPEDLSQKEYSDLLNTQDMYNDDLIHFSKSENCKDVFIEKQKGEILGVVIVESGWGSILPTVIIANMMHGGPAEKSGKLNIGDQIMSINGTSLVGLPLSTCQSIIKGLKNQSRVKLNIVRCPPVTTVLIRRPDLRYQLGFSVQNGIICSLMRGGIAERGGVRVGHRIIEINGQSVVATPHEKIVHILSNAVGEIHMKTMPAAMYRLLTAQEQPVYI
T6 sequence (P09923 whole entry): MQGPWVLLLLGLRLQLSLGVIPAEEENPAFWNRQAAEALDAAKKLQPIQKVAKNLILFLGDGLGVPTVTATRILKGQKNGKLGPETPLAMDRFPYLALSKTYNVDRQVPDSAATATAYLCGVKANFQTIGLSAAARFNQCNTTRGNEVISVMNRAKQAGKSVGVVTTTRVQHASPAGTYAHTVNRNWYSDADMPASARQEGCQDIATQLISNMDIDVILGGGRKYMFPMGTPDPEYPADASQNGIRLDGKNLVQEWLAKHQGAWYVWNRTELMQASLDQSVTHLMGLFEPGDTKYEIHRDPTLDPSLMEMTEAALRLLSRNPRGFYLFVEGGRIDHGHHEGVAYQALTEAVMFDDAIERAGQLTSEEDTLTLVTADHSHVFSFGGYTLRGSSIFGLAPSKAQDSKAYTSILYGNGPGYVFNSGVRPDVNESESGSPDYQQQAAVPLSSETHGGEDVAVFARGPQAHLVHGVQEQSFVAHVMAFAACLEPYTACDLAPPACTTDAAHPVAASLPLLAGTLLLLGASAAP
Chain of DNA dC->dU-editing enzyme APOBEC-3A (P31941 whole entry): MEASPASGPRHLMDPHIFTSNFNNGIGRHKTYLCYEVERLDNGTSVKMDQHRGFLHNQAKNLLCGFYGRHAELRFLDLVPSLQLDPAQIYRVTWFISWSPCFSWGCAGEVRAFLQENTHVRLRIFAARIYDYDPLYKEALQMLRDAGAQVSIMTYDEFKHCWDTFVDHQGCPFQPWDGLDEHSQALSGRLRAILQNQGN
Chain of Alkaline phosphatase, placental type (P05187 whole entry): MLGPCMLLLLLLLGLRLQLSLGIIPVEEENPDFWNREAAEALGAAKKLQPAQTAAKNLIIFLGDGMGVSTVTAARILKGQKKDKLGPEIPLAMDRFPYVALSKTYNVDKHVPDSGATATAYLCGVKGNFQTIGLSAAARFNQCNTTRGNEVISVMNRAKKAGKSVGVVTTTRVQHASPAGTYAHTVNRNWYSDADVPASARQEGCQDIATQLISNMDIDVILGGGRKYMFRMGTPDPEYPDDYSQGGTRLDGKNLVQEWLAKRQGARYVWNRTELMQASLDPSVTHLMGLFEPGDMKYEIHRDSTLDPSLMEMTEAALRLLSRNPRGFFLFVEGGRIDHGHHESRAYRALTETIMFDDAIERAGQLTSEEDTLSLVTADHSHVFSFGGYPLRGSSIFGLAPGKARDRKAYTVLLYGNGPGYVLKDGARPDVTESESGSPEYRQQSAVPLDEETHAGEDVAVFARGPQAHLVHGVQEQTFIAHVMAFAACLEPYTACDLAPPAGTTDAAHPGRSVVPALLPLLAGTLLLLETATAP
Chain of DNA damage-inducible transcript 3 protein (P35639 whole entry): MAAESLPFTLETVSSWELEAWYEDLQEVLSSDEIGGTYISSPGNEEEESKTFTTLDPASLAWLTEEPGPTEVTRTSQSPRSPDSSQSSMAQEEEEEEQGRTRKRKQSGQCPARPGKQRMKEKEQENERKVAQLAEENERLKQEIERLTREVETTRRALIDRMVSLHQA
Chain of DNA dC->dU-editing enzyme APOBEC-3G (Q9HC16 whole entry): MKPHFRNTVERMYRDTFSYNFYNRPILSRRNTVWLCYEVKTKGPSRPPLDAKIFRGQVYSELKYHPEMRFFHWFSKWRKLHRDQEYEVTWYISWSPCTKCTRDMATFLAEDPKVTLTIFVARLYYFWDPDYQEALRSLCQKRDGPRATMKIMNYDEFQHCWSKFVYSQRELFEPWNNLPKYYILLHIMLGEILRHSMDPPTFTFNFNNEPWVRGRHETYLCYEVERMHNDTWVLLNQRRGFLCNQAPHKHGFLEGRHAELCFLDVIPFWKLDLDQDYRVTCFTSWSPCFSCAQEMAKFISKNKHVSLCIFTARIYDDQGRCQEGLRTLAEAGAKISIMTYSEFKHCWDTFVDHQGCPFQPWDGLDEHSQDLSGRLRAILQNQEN

With `COc1cc(/C=C/C(=O)c2ccc(C)cc2)ccc1OCC#N` the IC50 [1] was > 20 µM (inactive), the EC50 [2] was > 20 µM (inactive) and the IC50 [3] was > 20 µM (inactive). The IC50 [4] was 4.56 µM (active), the EC50 [5] was 4.61 µM (active) and the IC50 [6] was 5.83 µM (active).
With `C=CCn1c(CCNC(=O)c2ccc(Cl)c(Cl)c2)nnc1SCCOc1ccc(OC)cc1` the EC50 [7] was 16.8 µM (active) and the “Absolute IC50 (CHOP)” value [8] was 10 µM.
With `O=C1NC(=O)N(c2ccccc2)C(=O)/C1=C/c1ccc(Sc2ccccc2)o1` the IC50 [9] was 35.9 µM (active) and the IC50 [10] was 34.4 µM (active).
For `COc1ccc2nc(O)c(C(c3nnnn3CC3CCCO3)N3CCc4ccccc4C3)cc2c1` (centres undefined), the EC50 [11] was > 100 µM (inactive).
In the case of `COc1ccccc1-c1nnc(SCC(=O)Nc2ccc(C)c(C)c2)[nH]1`, the IC50 [12] was > 100 µM (not active), the IC50 [13] was > 100 µM (inactive) and the IC50 [14] was > 100 µM (inactive).
For `Nn1c(SCC(=O)Nc2cccnc2Cl)nnc1-c1ccccc1`, the IC50 [15] was > 80 µM (inactive), the IC50 [16] was > 100 µM (inactive) and the IC50 [17] was 13.3 µM (active).
In the case of `COc1ccc(C)cc1NC(=O)CSc1nnc(COc2ccc(Cl)cc2)n1Cc1ccco1`, the EC50 [7] was 259 µM (active), the AC50 [18] was 5.42 µM (active) and the IC50 [19] was > 50 µM (inactive).
For `CC(C)C[C@H]1CN=C(Nc2ccccc2)N1CCCC1CCCCC1`, the CC50 [20] was > 20 µM (active), the IC50 [21] was 40.1 µM (active) and the CC50 [22] was 16.2 µM (active).
In the case of `COc1cccc2cc(C(=O)Nc3ccc(S(=O)(=O)NCC4CCCO4)cc3)c(=O)oc12` (centres undefined), the IC50 [9] was > 56.8 µM (not active) and the IC50 [10] was > 50 µM (inactive).
With `CCc1nnc(NC(=O)CSc2nnc(C)c(=O)n2N)s1` the EC50 [23] was > 100 µM (inactive) and the IC50 [24] was > 100 µM (inactive).
For `CCN(CC)S(=O)(=O)c1cccc(-c2n[nH]c(=S)n2C)c1`, the IC50 [16] was > 100 µM (inactive) and the IC50 [17] was 4.94 µM (active).
In the case of `CCC(CC)c1nnc(NC(=O)c2c(C)nn(Cc3ccccc3Cl)c2C)s1`, the “Absolute IC50 (CHOP)” value [8] was under 10 µM.
For `CN(C)CCCN(C(=O)c1cc2cc([N+](=O)[O-])ccc2s1)c1nc2cc3c(cc2s1)OCCO3`, the CC50 [25] was 24.5 µM (active), the EC50 [26] was 2.89 µM (inconclusive) and the EC50 [27] was < 0.1 µM (active). For the same compound, the EC50 [28] was 7.44 µM (active), the EC50 [29] was 6.94 µM (active) and the EC50 [30] was > 89.2 µM (inactive). For the same compound, the EC50 [31] was 2.96 µM (inconclusive), the EC50 [32] was 1.65 µM (active) and the EC50 [11] was > 100 µM (inactive). For the same compound, the EC50 [33] was 0.148 µM (active).
For `COc1ccc(OCC(=O)NNC(=O)c2ccccn2)cc1`, the IC50 [21] was 9.61 µM (active), the IC50 [13] was > 100 µM (inactive) and the IC50 [34] was > 20 µM (inactive).
With `S=C1SCN(Cc2ccco2)CN1Cc1ccco1` the CC50 [35] was 16.8 µM (active), the AC50 [36] was 0.574 µM (active) and the CC50 [37] was 18.4 µM (active). For the same compound, the IC50 [21] was 22.4 µM (active) and the CC50 [22] was 8.73 µM (active).
With `O=C1CC(N2CCN(Cc3ccc(Cl)cc3)CC2)C(=O)N1CCc1ccccc1` (centres undefined) the IC50 [19] was > 50 µM (inactive).
